Reference: ChEMBL document CHEMBL3045972, “Effect of side-chain alteration on hormonal activity of nonsteroidal estrogen antagonists” (2010)

Key:
Rattus norvegicus [1] = test: Antiestrogenic activity in Rattus norvegicus Sprague-Dawley (rat) assessed as inhibition of ethynylestradiol-induced uterine weight at 3 mg/kg, po qd administered 3 days measured on day 31 relative to control; assay type: functional; conditions: for inhibition in vivo at 3 mg/kg: Rattus norvegicus, Sprague-Dawley, po
Rattus norvegicus [2] = test: Estrogenic activity in Rattus norvegicus (rat) assessed as increase in uterine weight at 3 mg/kg, sc qd after 3 days relative to control; assay type: functional; conditions: route subcutaneous; for uterine weight increase relative to control at 3 mg/kg: Rattus norvegicus, sc, 72 h, read-out: INH; for uterine weight increase relative to control: 3 mg/kg
[3] = molecular target: T1, Estrogen receptor (Rattus norvegicus) (UniProt P06211); test: Binding affinity to Charles Foster Rattus norvegicus (rat) uterine 17beta-estradiol receptor cytosolic form relative to estradiol
T1 sequence (whole entry): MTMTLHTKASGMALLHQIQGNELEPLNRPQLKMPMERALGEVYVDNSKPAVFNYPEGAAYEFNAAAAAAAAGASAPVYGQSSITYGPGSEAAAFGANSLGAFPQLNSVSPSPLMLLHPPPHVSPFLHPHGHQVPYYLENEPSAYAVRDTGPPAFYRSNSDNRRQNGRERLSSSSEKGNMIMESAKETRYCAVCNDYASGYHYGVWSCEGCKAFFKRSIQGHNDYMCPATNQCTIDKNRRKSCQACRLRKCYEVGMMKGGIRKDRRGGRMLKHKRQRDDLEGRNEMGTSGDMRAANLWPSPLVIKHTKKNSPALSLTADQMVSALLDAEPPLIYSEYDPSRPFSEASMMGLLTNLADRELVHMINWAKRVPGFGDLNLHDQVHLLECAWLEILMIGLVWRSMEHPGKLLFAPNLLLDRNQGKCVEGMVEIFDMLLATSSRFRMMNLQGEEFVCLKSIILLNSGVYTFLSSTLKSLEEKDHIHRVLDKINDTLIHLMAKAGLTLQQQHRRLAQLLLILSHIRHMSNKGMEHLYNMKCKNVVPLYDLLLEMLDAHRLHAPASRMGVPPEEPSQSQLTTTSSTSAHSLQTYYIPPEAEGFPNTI

Rattus norvegicus [4] = test: Antiestrogenic activity in Rattus norvegicus Sprague-Dawley (rat) assessed as inhibition of ethynylestradiol-induced uterine weight at 10 mg/kg, po qd administered 3 days measured on day 31 relative to control; assay type: functional; conditions: for inhibition in vivo at 10 mg/kg: Rattus norvegicus, Sprague-Dawley, po; for inhibition (INH): 10 mg/kg
Rattus norvegicus [5] = test: Estrogenic activity in Rattus norvegicus (rat) assessed as increase in uterine weight at 10 mg/kg, sc qd after 3 days relative to control; assay type: functional; conditions: route subcutaneous

Compound	Activity [3] [%]	inhibition in vivo at 10 mg/kg (Rattus norvegicus [4]) [%]	Activity (Rattus norvegicus [5]) [%]	further results
COc1ccc2c(c1)OC(C)(C)[C@H](c1ccccc1)[C@H]2c1ccc(O)cc1	2.1			inhibition in vivo at 3 mg/kg (Rattus norvegicus [1]): 50%; uterine weight increase relative to control at 3 mg/kg (Rattus norvegicus [2]): 109%
COc1ccc2c(c1)OC(C)(C)[C@H](c1ccccc1)[C@@H]2c1ccc(OC(C)C(=O)O)cc1 (relative stereo)		3.8	44.2	
COc1ccc2c(c1)OC(C)(C)[C@H](c1ccccc1)[C@@H]2c1ccc(OC(C)C(=O)NN)cc1 (relative stereo)	0.011	1.07	110.22	
CCOC(=O)C(C)Oc1ccc([C@@H]2c3ccc(OC)cc3OC(C)(C)[C@H]2c2ccccc2)cc1 (relative stereo) [listing 1 of 2 here]		3.98	43.7	
COc1ccc2c(c1)OC(C)(C)[C@@H](c1ccccc1)[C@@H]2c1ccc(OC(C)C(=O)O)cc1 (relative stereo)		10.8		Activity (Rattus norvegicus [5]; 10 mg/kg): 21.6%
COc1ccc2c(c1)OC(C)(C)[C@@H](c1ccccc1)[C@@H]2c1ccc(OC(C)C(=O)NN)cc1 (relative stereo) [listing 1 of 2 here]				inhibition (INH) (Rattus norvegicus [4]): 12.14%; Activity (Rattus norvegicus [5]; 10 mg/kg): 101.91%
COc1ccc2c(c1)OC(C)(C)[C@H](c1ccccc1)[C@@H]2c1ccc(O)cc1 (relative stereo)	< 0.001		33.6	
CCOC(=O)C(C)Oc1ccc([C@@H]2c3ccc(OC)cc3OC(C)(C)[C@@H]2c2ccccc2)cc1 (relative stereo)		3.71	71.58	
CCOC(=O)C(C)Oc1ccc([C@@H]2c3ccc(OC)cc3OC(C)(C)[C@H]2c2ccccc2)cc1 (relative stereo) [listing 2 of 2 here]	0.029			
COc1ccc2c(c1)OC(C)(C)[C@@H](c1ccccc1)[C@@H]2c1ccc(OC(C)C(=O)NN)cc1 (relative stereo) [listing 2 of 2 here]	0.052			
COc1ccc2c(c1)OC(C)(C)[C@@H](c1ccccc1)[C@@H]2c1ccc(O)cc1 (relative stereo; 1b) [listing 1 of 2 here]				inhibition in vivo at 3 mg/kg (Rattus norvegicus [1]): 60%; uterine weight increase relative to control (Rattus norvegicus [2]): 126.83%
COc1ccc2c(c1)OC(C)(C)[C@@H](c1ccccc1)[C@@H]2c1ccc(O)cc1 (relative stereo; 1b) [listing 2 of 2 here]	5.42			
COc1ccc2c(c1)OC(C)(C)[C@@H](c1ccccc1)[C@@H]2c1ccc(O)cc1 (relative stereo; 1c) [listing 1 of 2 here]				inhibition (INH) (Rattus norvegicus [1]; 3 mg/kg): 46.11%; uterine weight increase relative to control (Rattus norvegicus [2]): 165%
COc1ccc2c(c1)OC(C)(C)[C@@H](c1ccccc1)[C@@H]2c1ccc(O)cc1 (relative stereo; 1c) [listing 2 of 2 here]	15.7			
CCOC(=O)C(C)Oc1ccc([C@H]2c3ccc(OC)cc3OC(C)(C)[C@@H]2c2ccccc2)cc1 (single isomer, unassigned; (+))		14.3	0.19	
COc1ccc2c(c1)OC(C)(C)[C@H](c1ccccc1)[C@H]2c1ccc(OC(C)C(=O)O)cc1 (single isomer, unassigned; (+))		16.1	6.88	
COc1ccc2c(c1)OC(C)(C)[C@H](c1ccccc1)[C@H]2c1ccc(OC(C)C(=O)NN)cc1 (single isomer, unassigned; (+))	0.24	6.21	6.68	
CCOC(=O)C(C)Oc1ccc([C@@H]2c3ccc(OC)cc3OC(C)(C)[C@H]2c2ccccc2)cc1 (single isomer, unassigned; (-))				inhibition in vivo at 3 mg/kg (Rattus norvegicus [1]): 40.6%; uterine weight increase relative to control at 3 mg/kg (Rattus norvegicus [2]): 122%
COc1ccc2c(c1)OC(C)(C)[C@@H](c1ccccc1)[C@@H]2c1ccc(OC(C)C(=O)NN)cc1 (single isomer, unassigned; (-)) [listing 1 of 2 here]				inhibition (INH) (Rattus norvegicus [4]): 25.37%; Activity (Rattus norvegicus [5]; 10 mg/kg): 155.02%
COc1ccc2c(c1)OC(C)(C)[C@@H](c1ccccc1)[C@@H]2c1ccc(OC(C)C(=O)NN)cc1 (single isomer, unassigned; (-)) [listing 2 of 2 here]	0.37			
COc1ccc2c(c1)OC(C)(C)[C@@H](c1ccccc1)[C@@H]2c1ccc(OC(C)C(=O)O)cc1 (stereo in doubt; 3c) [listing 1 of 2 here]				inhibition (INH) (Rattus norvegicus [4]): 10%; Activity (Rattus norvegicus [5]; 10 mg/kg): 149%
COc1ccc2c(c1)OC(C)(C)[C@@H](c1ccccc1)[C@@H]2c1ccc(OC(C)C(=O)O)cc1 (stereo in doubt; 3c) [listing 2 of 2 here]	0.037			
